In the oligonucleotide strings, read from the 5' end, every base follows the letter of its sugar. An asterisk marks phosphorothioate; unmarked linkages are phosphodiester. Other units and linkages are bracketed, terminal groups are in braces. A string of capitals states the bases alone. e = 2'-O-(2-methoxyethyl) (MOE); [5mC] = 5-methylcytosine; d = 2'-deoxy (DNA)
Legend:
Assay type in all cases: cell-based
[1] = tested on: human Factor 7 mRNA; experiment: Dose-dependent antisense inhibition of human Factor 7 in HepB3 cells, transfection with lipofectin; conditions: for percent inhibition of Factor 7 mRNA, 6.25 nM / percent inhibition of Factor 7 mRNA, 12.5 nM / percent inhibition of Factor 7 mRNA, 25.0 nM / percent inhibition of Factor 7 mRNA, 50.0 nM / percent inhibition of Factor 7 mRNA, 100.0 nM: Example 5, HepB3, lipofectin, ~16 h; for percent inhibition of Factor 7 mRNA, relative to untreated control cells: lipofectin, HepB3 cells, 16 hours
Experimental: Cells were plated at a density of 4,000 cells per well and treated with lipofectin reagent with 3.125 nM, 6.25 nM, 12.5 nM, 25 nM, 50 nM, and 100 nM concentrations of antisense oligonucleotide, as indicated in Table 3. After a treatment period of approximately 16 hours, RNA was isolated from the cells and Factor 7 mRNA levels were measured by real-time RT-PCR, as described herein. Human Factor 7 primer probe set RTS 2927 (forward sequence: […], incorporated herein as SEQ ID NO: 164; reverse sequence: […], incorporated herein as SEQ ID NO: 165; probe sequence: TGGGTGGTCTCCGCGGCCX, incorporated herein as SEQ ID NO: 166) was used to measure mRNA levels. Factor 7 mRNA levels were adjusted according to total RNA content as measured by RIBOGREEN®. Results are presented as percent inhibition of Factor 7, relative to untreated control cells.
Cells were plated at a density of 4,000 cells per well and transfected using lipofectin reagent with 6.25 nM, 12.5 nM, 25.0 nM, 50.0 nM, and 100.0 nM concentrations of antisense oligonucleotide, as indicated in Table 7. After a treatment period of approximately 16 hours, RNA was isolated from the cells and Factor 7 mRNA levels were measured by real-time RT-PCR, as described herein. Human Factor 7 primer probe set RTS 2927 was used to measure mRNA levels. Factor 7 mRNA levels were adjusted according to total RNA content as measured by RIBOGREEN®. Results are presented as percent inhibition of Factor 7, relative to untreated control cells.
Cells were plated at a density of 4,000 cells per well and transfected using lipofectin reagent with 3.125 nM, 6.25 nM, 12.5 nM, 25 nM, 50 nM, and 100 nM concentrations of antisense oligonucleotide, as specified in Table 14. After a treatment period of approximately 16 hours, RNA was isolated from the cells and Factor 7 mRNA levels were measured by quantitative real-time PCR. Human Factor 7 primer probe set RTS 2927 was used to measure mRNA levels. Factor 7 mRNA levels were adjusted according to total RNA content, as measured by RIBOGREEN®. Results are presented as percent inhibition of Factor 7, relative to untreated control cells.

[2] = tested on: human Factor 7 mRNA; experiment: Antisense inhibition of human Factor 7 mRNA in HepB3 cells, lipofectin, 50 nM, real-time RT-PCR; conditions: HepB3 cells
How it was run: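 Cells plated at 4,000 per well were transfected and harvested after approximately 24 hours of treatment. Transcript levels, measured with primer probe set RTS 2927, were normalised to total RNA by RIBOGREEN®. Values are percent inhibition relative to untreated control cells.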

[3] = tested on: human Factor 7 mRNA; experiment: Inhibition of human Factor 7 mRNA by 2-10-2 MOE shortmers in HepB3 cells, electroporation, 1,000 nM; conditions: electroporation, 1,000 nM oligonucleotide, approximately 24 hours, relative to untreated control cells
Text: Short antisense oligonucleotides (shortmers) were designed to target a Factor 7 nucleic acid. The shortmers in Table 17 were designed as 2-10-2 MOE gapmers. The gapmers are 14 nucleotides in length, wherein the central gap segment is comprised of 10 2′-deoxynucleotides and is flanked on both sides (in the 5′ and 3′ directions) by wings comprising 2 nucleotides each. Each nucleotide in the 5′ wing segment and each nucleotide in the 3′ wing segment has a 2′-MOE modification. The internucleoside linkages throughout each gapmer are phosphorothioate (P═S) linkages. All cytidine residues throughout each gapmer are 5-methylcytidines.
Shortmers were evaluated for their ability to reduce human Factor 7 mRNA in HepB3 cells and compared with one 5-10-5 chimeric oligonucleotide from Table 16, ISIS 407939. HepB3 cells at a density of 20,000 cells per well in a 96-well plate were transfected using electroporation with 1,000 nM of antisense oligonucleotide. After a treatment period of approximately 24 hours, RNA was isolated from the cells and Factor 7 mRNA levels were measured by real-time RT-PCR, as described herein. Factor 7 mRNA levels were adjusted according to total RNA content as measured by RIBOGREEN®. Results are presented in Table 17 as percent inhibition of Factor 7 mRNA, relative to untreated control cells. ISIS 407939 is the first oligonucleotide in […] to which the shortmers were compared, and is marked by an asterisk (*).

[4] = lipofectin, 50 nM antisense oligonucleotide, approximately 24 hours, primer probe set RTS 2927, relative to untreated control
[5] = gapmers (5-10-5, 3-14-3, 2-13-5 MOE) targeted to nucleobases 4868 to 4899 of SEQ ID NO: 1

Row | Substance | % inhibition of human Factor 7 mRNA [3] [%] | also measured
1 | 416508 (antisense e[5mC]*eG*eA*eG*eT*dT*d[5mC]*dT*dG*d[5mC]*dA*dG*dG*dA*dG*e[5mC]*eG*eG*e[5mC]*e[5mC]) [compound 416508] |  | percent inhibition of Factor 7 mRNA, 6.25 nM [1]: 42%; percent inhibition of Factor 7 mRNA, 12.5 nM ([1]; 12.5 nM): 51%; percent inhibition of Factor 7 mRNA, 25.0 nM [1]: 71%; percent inhibition of Factor 7 mRNA, 50.0 nM [1]: 79%; percent inhibition of Factor 7 mRNA, 100.0 nM [1]: 89%; % Inhibition of human Factor 7 mRNA levels [2, 4]: 67%; % Inhibition of human Factor 7 mRNA levels [2, 5]: 67%
2 | 416549 (antisense eG*eA*e[5mC]*eA*eA*dT*dG*dG*dT*d[5mC]*dA*dG*dG*dG*d[5mC]*eT*eG*eG*eT*eT) [compound 416549] |  | percent inhibition of Factor 7 mRNA, 6.25 nM [1]: 38%; percent inhibition of Factor 7 mRNA, 12.5 nM ([1]; 12.5 nM): 44%; percent inhibition of Factor 7 mRNA, 25.0 nM [1]: 63%; percent inhibition of Factor 7 mRNA, 50.0 nM [1]: 73%; percent inhibition of Factor 7 mRNA, 100.0 nM [1]: 78%; % Inhibition of human Factor 7 mRNA levels [2, 4]: 68%; % Inhibition of human Factor 7 mRNA levels ([2]; gapmers targeted to nucleobases 11830 to 11869 of SEQ ID NO: 1 (Table 9)): 69%
3 | 422294 (antisense eG*eA*dG*dT*dT*d[5mC]*dT*dG*d[5mC]*dA*dG*dG*dA*dG*d[5mC]*eG*eG*e[5mC]*e[5mC]*eT) [compound 422294] |  | percent inhibition of Factor 7 mRNA, relative to untreated control cells ([1]; 3.125 nM): 9%; percent inhibition of Factor 7 mRNA, relative to untreated control cells ([1]; 12.5 nM): 32%; percent inhibition of Factor 7 mRNA, relative to untreated control cells ([1]; 25 nM): 61%; percent inhibition of Factor 7 mRNA, relative to untreated control cells ([1]; 50 nM): 77%; percent inhibition of Factor 7 mRNA, relative to untreated control cells ([1]; 100 nM): 84%; percent inhibition of Factor 7 mRNA, relative to untreated control cells [1]: 21%; % Inhibition of human Factor 7 mRNA levels [2, 5]: 78%
4 | 435478 (antisense eG*eA*dG*dG*d[5mC]*dA*d[5mC]*dA*d[5mC]*dT*dG*dG*eT*e[5mC]) [compound 435478] | 43 | 
5 | 435479 (antisense e[5mC]*eA*d[5mC]*dT*d[5mC]*d[5mC]*d[5mC]*d[5mC]*dT*dT*dT*dG*eG*eG) [compound 435479] | 9 | 
6 | 435480 (antisense eG*eG*dT*d[5mC]*dA*dT*d[5mC]*dA*dG*d[5mC]*d[5mC]*dG*eG*eG) [compound 435480] | 53 | 
7 | 435481 (antisense eG*eG*dG*dT*d[5mC]*dA*dT*d[5mC]*dA*dG*d[5mC]*d[5mC]*eG*eG) [compound 435481] | 50 | 
8 | 435482 (antisense eT*eG*dG*dG*dT*d[5mC]*dA*dT*d[5mC]*dA*dG*d[5mC]*e[5mC]*eG) [compound 435482] | 62 | 
9 | 435483 (antisense e[5mC]*eT*dG*dG*dG*dT*d[5mC]*dA*dT*d[5mC]*dA*dG*e[5mC]*e[5mC]) [compound 435483] | 82 | 
10 | 435484 (antisense e[5mC]*e[5mC]*dT*dG*dG*dG*dT*d[5mC]*dA*dT*d[5mC]*dA*eG*e[5mC]) [compound 435484] | 45 | 
11 | 435485 (antisense eT*e[5mC]*d[5mC]*dT*dG*dG*dG*dT*d[5mC]*dA*dT*d[5mC]*eA*eG) [compound 435485] | 34 | 
12 | 435486 (antisense eG*eT*d[5mC]*d[5mC]*dT*dG*dG*dG*dT*d[5mC]*dA*dT*e[5mC]*eA) [compound 435486] | 64 | 
13 | 435487 (antisense eA*eG*dT*d[5mC]*d[5mC]*dT*dG*dG*dG*dT*d[5mC]*dA*eT*e[5mC]) [compound 435487] | 36 | 
14 | 435488 (antisense e[5mC]*eA*dG*dT*d[5mC]*d[5mC]*dT*dG*dG*dG*dT*d[5mC]*eA*eT) [compound 435488] | 17 | 
15 | 435489 (antisense e[5mC]*eT*dG*dG*dT*dG*dT*dA*d[5mC]*dA*d[5mC]*d[5mC]*e[5mC]*e[5mC]) [compound 435489] | 72 | 
16 | 435490 (antisense e[5mC]*e[5mC]*dT*dG*dG*dT*dG*dT*dA*d[5mC]*dA*d[5mC]*e[5mC]*e[5mC]) [compound 435490] | 49 | 

Row | Substance | % inhibition of human Factor 7 mRNA [3] [%] | also measured
17 | 435491 (antisense e[5mC]*e[5mC]*d[5mC]*dT*dG*dG*dT*dG*dT*dA*d[5mC]*dA*e[5mC]*e[5mC]) [compound 435491] | 61 | 
18 | 435492 (antisense eA*e[5mC]*d[5mC]*d[5mC]*dT*dG*dG*dT*dG*dT*dA*d[5mC]*eA*e[5mC]) [compound 435492] | 45 | 
19 | 435493 (antisense eG*eA*d[5mC]*d[5mC]*d[5mC]*dT*dG*dG*dT*dG*dT*dA*e[5mC]*eA) [compound 435493] | 58 | 
20 | 435494 (antisense eA*eG*dA*d[5mC]*d[5mC]*d[5mC]*dT*dG*dG*dT*dG*dT*eA*e[5mC]) [compound 435494] | 47 | 
21 | 435495 (antisense eG*eA*dG*dA*d[5mC]*d[5mC]*d[5mC]*dT*dG*dG*dT*dG*eT*eA) [compound 435495] | 27 | 
22 | 435496 (antisense eG*eG*dA*dG*dA*d[5mC]*d[5mC]*d[5mC]*dT*dG*dG*dT*eG*eT) [compound 435496] | 47 | 
23 | 435497 (antisense eG*eG*dG*dA*dG*dA*d[5mC]*d[5mC]*d[5mC]*dT*dG*dG*eT*eG) [compound 435497] | 27 | 
24 | 435498 (antisense eT*eG*dG*dG*dA*dG*dA*d[5mC]*d[5mC]*d[5mC]*dT*dG*eG*eT) [compound 435498] | 37 | 
25 | 435499 (antisense e[5mC]*eT*dG*dG*dG*dA*dG*dA*d[5mC]*d[5mC]*d[5mC]*dT*eG*eG) [compound 435499] | 59 | 
26 | 435500 (antisense eA*e[5mC]*dT*dG*dG*dG*dA*dG*dA*d[5mC]*d[5mC]*d[5mC]*eT*eG) [compound 435500] | 49 | 
27 | 435501 (antisense eT*eA*d[5mC]*dT*dG*dG*dG*dA*dG*dA*d[5mC]*d[5mC]*e[5mC]*eT) [compound 435501] | 51 | 
28 | 435502 (antisense eG*eT*dA*d[5mC]*dT*dG*dG*dG*dA*dG*dA*d[5mC]*e[5mC]*e[5mC]) [compound 435502] | 69 | 
29 | 435503 (antisense eT*eG*dT*dA*d[5mC]*dT*dG*dG*dG*dA*dG*dA*e[5mC]*e[5mC]) [compound 435503] | 17 | 
30 | 435504 (antisense eA*eT*dG*dT*dA*d[5mC]*dT*dG*dG*dG*dA*dG*eA*e[5mC]) [compound 435504] | 8 | 
31 | 435634 (antisense eT*eG*dA*dA*dA*dT*d[5mC]*dT*d[5mC]*dT*dG*d[5mC]*eA*eG) [compound 435634] | 5 | 

— US20120214862A1, “MODULATION OF FACTOR 7 EXPRESSION” (ISIS Pharmaceuticals, Inc., priority 2009, published 2012)
